From US20110251143A1, “STABLE ELSAMITRUCIN SALT FORMULATIONS” (Spectrum Pharmaceuticals, Inc., priority 2007, published 2011)

Key:
MDA-MB-231 = settings: ER− MDA-MB-231 cell line; cited from earlier work
[1] = system: HT29 human colon carcinoma; assay: MTT cell growth inhibition, HT29; format: cell-based; settings: Homo sapiens, HT-29, 5-10 days
Description: (§1) The following experiment confirms that the elsamitrucin salts made in accordance with the teachings of the present disclosure retain their in vitro anti-neoplastic activity when compared to elsamitrucin base. Elsamitrucin and elsamitrucin tosylate were tested in vitro using: B16F10 (murine […]), HCT 116 (human colon), HT29 (human colon) and SK-MES-1 (human non-small cell lung carcinoma). Cell growth inhibition was evaluated in 96-well micro-culture plates with a semi-automated MTT (3-(4,5-dimethylthiazol-2-yl)-2,5-diphenyltetrazolium bromide) assay. […]
(§2) Cell culture plates seeded with test cells and various concentrations of elsamitrucin solutions were placed in a humidified incubator at 37° C., with CO2 and 95% air for 5-10 days. […] Absorbance was monitored at a wavelength of 595 nm, and at a reference wavelength of 650 nm, using a TECAN® GENios mocroplate reader. In all experiments, absorbance data was acquired for each agent at two overlapping concentration ranges. […]
(§3) The results of each test were stored and imported into PRISM® 3.03 for graphical analysis and determination of IC50 values. All results were graphed as a percentage of controlled absorbance versus the drug concentration. […]

[2] = patients with refractory/relapsed non-Hodgkin's lymphoma; cited from earlier work
[3] = stability study of Elsamitrucin F2 RTU, impurities profile by HPLC;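 further: formulation kept in nitrogen-flushed sealed amber vials, sampled at time points, diluted to roughly 0.1 mg/mL and analysed by gradient HPLC on a C18 column, water/acetonitrile with trifluoroacetic acid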
Description: Design of the Stability Study: 250 mL of Elsamitrucin Tosylate stock solution (10 mg/mL free base, 4.77% Mannitol, pH 4.0) was prepared. 80×5 mL amber serum vials were filled with 2.5 mL of the Elsamitrucin Tosylate stock solution, flushed with nitrogen and sealed with stoppers. These sealed vials, in both upright and inverted positions, were stored in the following temperature cabinets at 4, 25, 40 and 60° C., respectively. […] Samples were removed for pH measurement and high performance liquid chromatography (HPLC) analysis at the various time points. At 60° C., measurements were made at 0, 2, 7, 10, 14 days. At 40° C., measurements were made at 0, 7, 14, 28, 38, 64, 77, 84 days. At 25° C., measurements were made at 0, 7, 14, 28, 64, 84 days. At 4° C., measures were made at 0, 7, 14, 28, 64, 84 days.
For the present stability study HPLC weight/weight assay of elsamitrucin was done in addition to the determination of related impurities. The reagents for the HPLC assay are as follows—HPLC grade acetonitrile and trifluoroacetic acid (Lot #44093418) were obtained from EMD Science. Water was purified with Millipore Milli-Q system. The apparatus was the chromatographic system which consisted of a Waters Alliance 2695 separation module equipped with a column heater, an autosampler and a Waters 2996 photodiode array detector. Data acquisition was controlled by Waters Empower Pro 2 software. As the column a Cadenza Cd-C18, 3 μm, 4.6×150 mm (Silverstone Sciences) was used. Detection was made at 267 nm. Mobile phase A contained water with 0.1% trifluoroacetic acid. 2 mL of trifluoroacetic acid was pipetted to 2000 mL of water. Mobile phase B contained acetonitrile with 0.08% trifluoroacetic acid. 1 mL of trifluoroacetic acid was pipetted to 1250 mL of acetonitrile. 1 L of water was mixed thoroughly with 1 L of acetonitrile.
HPLC analysis was run with a gradient at flow rate equal to 1.0 mL/min. The oven temperature was set at 40° C. The autosampler temperature was at 25° C. The injection volume was 10 μL. Sample Diluent—Acetonitrile/water (50/50, v/v): 1 L of water was mixed thoroughly with 1 L of acetonitrile. Sample Blank—Acetonitrile/water (50/50, v/v): Sample Diluent was used as Sample Blank. Standard Solution—˜0.1 mg/mL of Elsamitrucin: 26.32 mg of Elsamitrucin Tosylate was accurately weighed and dissolved in a 200 mL of Sample Diluent in a 200 mL volumetric flask. Sample Solution Preparation (one vial per time point): 2 mL of Elsamitrucin RTU solution was pipetted to a 20 mL volumetric flask and diluted with 18 mL of Sample Diluent. 2 mL of the diluted solution was further diluted with 18 mL of Sample Diluent in a 20 mL volumetric flask to give the final analytical sample (with concentration at about 0.1 mg/mL). The retention time for Elsamitrucin was about 11.7 minutes.

MCF7DX = MCF7DX subline; cited from earlier work
[4] = system: B16F10 murine melanoma cells; assay: MTT cell growth inhibition, B16F10; format: cell-based; settings: Mus musculus, B16-F10, 5-10 days
Description: as §1, §2, §3

ER+ tumors = settings: clinical specimens; cited from earlier work
[5] = system: HCT 116 human colon carcinoma; assay: MTT cell growth inhibition, HCT 116; format: cell-based; settings: Homo sapiens; HCT 116, MTT, 5-10 days
Description: as §1, §2, §3

ER− tumors = settings: clinical specimens; cited from earlier work
[6] = system: SK-MES-1 human non-small cell lung carcinoma; assay: MTT cell growth inhibition, SK-MES-1; format: cell-based; settings: Homo sapiens; SK-MES-1, MTT, 5-10 days
Description: as §1, §2, §3

MCF7 = settings: ER+ MCF7 cell line; cited from earlier work

## CO[C@H]1[C@@H](O)[C@@H](C)OC(O[C@H]2[C@H](Oc3cccc4c(O)c5c(=O)oc6ccc(C)c7c(=O)oc(c34)c5c67)O[C@H](C)[C@H](O)[C@]2(C)O)[C@@H]1N (stereo partly drawn) [Elsamitrucin, benzo(h)(1)benzopyrano(5,4,3-cde)(1)ebnzopyran-5,12-dione,10((2-O-(2-amino-2,6-dideoxy-3-O-methyl-alpha-D-galactopyranosyl)-6-deoxy-3-C-methyl-beta-D-galactopyranosyl)oxy)-6-hydroxy-1-methyl]
MDA-MB-231
  IC50 antiproliferative effect: 0.21 micrograms/ml
[1]
  IC50: 95 nM
[2]
  elsamtrucin-associated toxicity: relatively mild
[3]; 10 mg/mL ELSA RTU Formulation 2, inverted, 5° C., Day 7
  Area Percent of HPLC peak: 97.89 Area Percent
[3]; 10 mg/mL ELSA RTU Formulation 2, inverted, 5° C., Day 14
  Area Percent of HPLC peak: 97.70 Area Percent
[3]; 10 mg/mL ELSA RTU Formulation 2, inverted, 5° C., Day 28
  Area Percent of HPLC peak: 98.41 Area Percent
[3]; 10 mg/mL ELSA RTU Formulation 2, inverted, 5° C., Day 64
  Area Percent of HPLC peak: 97.54 Area Percent
[3]; 10 mg/mL ELSA RTU Formulation 2, inverted, 5° C., Day 84
  Area Percent of HPLC peak: 98.15 Area Percent
[3]; 10 mg/mL ELSA RTU Formulation 2, inverted, 5° C., Initial
  Area Percent of HPLC peak: 97.63 Area Percent
[3]; 10 mg/mL ELSA RTU Formulation 2, inverted, 25° C., Day 7
  Area Percent of HPLC peak: 97.71 Area Percent
[3]; 10 mg/mL ELSA RTU Formulation 2, inverted, 25° C., Day 14
  Area Percent of HPLC peak: 97.73 Area Percent
[3]; 10 mg/mL ELSA RTU Formulation 2, inverted, 25° C., Day 28
  Area Percent of HPLC peak: 98.37 Area Percent
[3]; 10 mg/mL ELSA RTU Formulation 2, inverted, 25° C., Day 64
  Area Percent of HPLC peak: 97.42 Area Percent
[3]; 10 mg/mL ELSA RTU Formulation 2, inverted, 25° C., Day 84
  Area Percent of HPLC peak: 97.28 Area Percent
[3]; 10 mg/mL ELSA RTU Formulation 2, inverted, 25° C., Initial
  Area Percent of HPLC peak: 97.63 Area Percent
[3]; 10 mg/mL ELSA RTU Formulation 2, inverted, 40° C., Day 7
  Area Percent of HPLC peak: 97.75 Area Percent
[3]; 10 mg/mL ELSA RTU Formulation 2, inverted, 40° C., Day 14
  Area Percent of HPLC peak: 97.64 Area Percent
[3]; 10 mg/mL ELSA RTU Formulation 2, inverted, 40° C., Day 28
  Area Percent of HPLC peak: 97.70 Area Percent
[3]; 10 mg/mL ELSA RTU Formulation 2, inverted, 40° C., Day 38
  Area Percent of HPLC peak: 98.04 Area Percent
[3]; 10 mg/mL ELSA RTU Formulation 2, inverted, 40° C., Day 64
  Area Percent of HPLC peak: 97.04 Area Percent
[3]; 10 mg/mL ELSA RTU Formulation 2, inverted, 40° C., Day 77
  Area Percent of HPLC peak: 96.84 Area Percent
[3]; 10 mg/mL ELSA RTU Formulation 2, inverted, 40° C., Day 84
  Area Percent of HPLC peak: 96.64 Area Percent
[3]; 10 mg/mL ELSA RTU Formulation 2, inverted, 40° C., Initial
  Area Percent of HPLC peak: 97.63 Area Percent
[3]; 10 mg/mL ELSA RTU Formulation 2, inverted, 60° C., Day 2
  Area Percent of HPLC peak: 97.73 Area Percent
[3]; 10 mg/mL ELSA RTU Formulation 2, inverted, 60° C., Day 7
  Area Percent of HPLC peak: 96.86 Area Percent
[3]; 10 mg/mL ELSA RTU Formulation 2, inverted, 60° C., Day 10
  Area Percent of HPLC peak: 96.82 Area Percent
[3]; 10 mg/mL ELSA RTU Formulation 2, inverted, 60° C., Day 14
  Area Percent of HPLC peak: 96.03 Area Percent
[3]; 10 mg/mL ELSA RTU Formulation 2, inverted, 60° C., Initial
  Area Percent of HPLC peak: 97.63 Area Percent
[3]; 10 mg/mL ELSA RTU Formulation 2, upright, 5° C., Day 7
  Area Percent of HPLC peak: 97.86 Area Percent
[3]; 10 mg/mL ELSA RTU Formulation 2, upright, 5° C., Day 14
  Area Percent of HPLC peak: 97.63 Area Percent
[3]; 10 mg/mL ELSA RTU Formulation 2, upright, 5° C., Day 28
  Area Percent of HPLC peak: 97.63 Area Percent
[3]; 10 mg/mL ELSA RTU Formulation 2, upright, 5° C., Day 64
  Area Percent of HPLC peak: 97.39 Area Percent
[3]; 10 mg/mL ELSA RTU Formulation 2, upright, 5° C., Day 84
  Area Percent of HPLC peak: 97.33 Area Percent
[3]; 10 mg/mL ELSA RTU Formulation 2, upright, 5° C., Initial
  Area Percent of HPLC peak: 97.63 Area Percent
[3]; 10 mg/mL ELSA RTU Formulation 2, upright, 40° C., Day 7
  Area Percent of HPLC peak: 97.77 Area Percent
[3]; 10 mg/mL ELSA RTU Formulation 2, upright, 40° C., Day 14
  Area Percent of HPLC peak: 97.71 Area Percent
[3]; 10 mg/mL ELSA RTU Formulation 2, upright, 40° C., Day 28
  Area Percent of HPLC peak: 97.62 Area Percent
[3]; 10 mg/mL ELSA RTU Formulation 2, upright, 40° C., Day 38
  Area Percent of HPLC peak: 97.76 Area Percent
[3]; 10 mg/mL ELSA RTU Formulation 2, upright, 40° C., Day 64
  Area Percent of HPLC peak: 96.86 Area Percent
[3]; 10 mg/mL ELSA RTU Formulation 2, upright, 40° C., Day 77
  Area Percent of HPLC peak: 96.80 Area Percent
[3]; 10 mg/mL ELSA RTU Formulation 2, upright, 40° C., Day 84
  Area Percent of HPLC peak: 97.31 Area Percent
[3]; 10 mg/mL ELSA RTU Formulation 2, upright, 40° C., Initial
  Area Percent of HPLC peak: 97.63 Area Percent
[3]; 10 mg/mL ELSA RTU Formulation 12, upright, 25° C., Day 7
  Area Percent of HPLC peak: 97.86 Area Percent
[3]; 10 mg/mL ELSA RTU Formulation 12, upright, 25° C., Day 14
  Area Percent of HPLC peak: 97.67 Area Percent
[3]; 10 mg/mL ELSA RTU Formulation 12, upright, 25° C., Day 28
  Area Percent of HPLC peak: 98.32 Area Percent
[3]; 10 mg/mL ELSA RTU Formulation 12, upright, 25° C., Day 64
  Area Percent of HPLC peak: 97.68 Area Percent
[3]; 10 mg/mL ELSA RTU Formulation 12, upright, 25° C., Day 84
  Area Percent of HPLC peak: 98.08 Area Percent
[3]; 10 mg/mL ELSA RTU Formulation 12, upright, 25° C., Initial
  Area Percent of HPLC peak: 97.63 Area Percent
[3]; 10 mg/mL ELSA RTU Formulation 12, upright, 60° C., Day 2
  Area Percent of HPLC peak: 97.83 Area Percent
[3]; 10 mg/mL ELSA RTU Formulation 12, upright, 60° C., Day 7
  Area Percent of HPLC peak: 96.93 Area Percent
[3]; 10 mg/mL ELSA RTU Formulation 12, upright, 60° C., Day 10
  Area Percent of HPLC peak: 95.99 Area Percent
[3]; 10 mg/mL ELSA RTU Formulation 12, upright, 60° C., Day 14
  Area Percent of HPLC peak: 95.79 Area Percent
[3]; 10 mg/mL ELSA RTU Formulation 12, upright, 60° C., Initial
  Area Percent of HPLC peak: 97.63 Area Percent
MCF7DX
  cross-resistance to DX: cross-resistant
[4]
  IC50: 24 nM
ER+ tumors
  minimal inhibiting concentrations: 0.1 micrograms/ml
[5]
  IC50: 74 nM
ER− tumors
  minimal inhibiting concentrations: 3.5 micrograms/ml
[6]
  IC50: 42 nM
MCF7
  IC50 antiproliferative effect: 0.25 micrograms/ml
